# According to patent publication US20090123389A1, “Methods for modulating Th17 cell development in the treatment and prevention of cellulite” (priority 2007, published 2009):
# Several values for one entry are separate records, joined by “and”; a condition that tells them apart may be missing. Equal values may be shown once.
# Legend:
# [1] = human, in vivo; cited from earlier work
# [2] = cited from earlier work
# [3] = system: unfolded protein response (Xbp-1 splicing); experiment: Xbp-1 splicing / ER stress response in activated T cells
# [4] = system: B220+ B cells or CD8+ T cells; experiment: B cell and CD8+ T cell proliferation and function; assay type: cell-based, mouse; conditions: HF 1.25-40 nM titrated
# Procedure: The non-specific effects of HF on B and CD8+ T cells were evaluated. B220+B cells or CD8+ T cells were isolated from the spleen and peripheral lymph nodes of C57B/6 mice. B cell proliferation and IL-6 production was induced by culturing the cells with LPS (0.5 μg/ml) for 4 days. The effects of HF on B cell function was determined by adding titrating amounts of HF (1.25 nM-40 nM) at the time of LPS stimulation. B cell proliferation was monitored by labeling cells with Carboxyfluorescein diacetate, succinimidyl ester (CFSE; 5 μM) prior to LPS stimulation and determining the rate of CFSE dilution after 4 days by flow cytometric analyses. LPS-induced IL-6 production by B cells was determined by intracellular staining on day 4, following PMA+Ionomycin+Brefeldin A re-stimulation as described above. For CD8+ T cell experiments, purified CD8+ T cells were labeled with CFSE as above and the T cells were activated using anti-CD3 (1 μg/ml) and anti-CD28 (1 μg/ml) antibodies. […] CD8+ T cell proliferation was determined by monitoring CFSE dilution on day 3-post activation; CD25 expression was determined by FACS staining on day 2 of culture; differentiation of CD8+ T cells into cytolytic T cells (CTL) was evaluated on day 4 by determining expression of IFNγ and granzyme B following PMA+Ionomycin+Brefeldin A re-stimulation. […]
# [5] = rabbit, in vivo; cited from earlier work
smiles,measurement,setting,value
"O=C(CC1NCCCC1O)Cn1cnc2cc(Br)c(Cl)cc2c1=O (racemic) [HF, 7-bromo-6-chloro-3-[3-(3-hydroxy-2-piperidinyl)-2-oxopropyl]-4(3H)-quinazolinone]",HF in serum during topical treatment,[1],undetectable in serum
same,peak plasma concentration,[2]; oral 3.5 mg/day,3 ng/ml and ~8 nM
same,dose at which dose limiting toxicity (nausea and vomiting) occurred,[2]; oral,3.5 mg/day
same,recommended tolerated dose for chronic treatment,[2]; oral,0.5 mg/day
same,"expression of hallmark ER stress response genes (GRP78/BiP, calreticulin and others)",[3],did not induce
same,Xbp-1 splicing,"[3]; tunicamycin 1 μg/ml or 10 nM HF, 4 hours",without promoting Xbp-1 splicing
same,doses at which B and CD8+ T cell proliferation and function were profoundly impaired,[4],greater than 20 nM
same,doses with little or no effect on B and CD8+ T cell function or proliferation,[4],lower than 10 nM
same,HF in serum after topical treatment of rabbits,[5],undetectable in serum
